Patent US20070179161A1, “Pyrazolopyrimidine compounds and their use in medicine” (VERNALIS (CAMBRIDGE) LIMITED., priority 2003, published 2007)
Read-outs that look alike come from different tables or passages of the source.

Legend:
Type in all cases: biochemical
GST-Chk1 enzyme = target: T1, GST-Chk1 enzyme (Homo sapiens, UniProt O14757); experiment: Chk1 kinase inhibition assay (33P phosphorylation of Chktide, filter plate); conditions: 0.01 mM ATP, 11 nM GST-Chk1, 40 minutes at 30° C.
T1 sequence (O14757 1-476): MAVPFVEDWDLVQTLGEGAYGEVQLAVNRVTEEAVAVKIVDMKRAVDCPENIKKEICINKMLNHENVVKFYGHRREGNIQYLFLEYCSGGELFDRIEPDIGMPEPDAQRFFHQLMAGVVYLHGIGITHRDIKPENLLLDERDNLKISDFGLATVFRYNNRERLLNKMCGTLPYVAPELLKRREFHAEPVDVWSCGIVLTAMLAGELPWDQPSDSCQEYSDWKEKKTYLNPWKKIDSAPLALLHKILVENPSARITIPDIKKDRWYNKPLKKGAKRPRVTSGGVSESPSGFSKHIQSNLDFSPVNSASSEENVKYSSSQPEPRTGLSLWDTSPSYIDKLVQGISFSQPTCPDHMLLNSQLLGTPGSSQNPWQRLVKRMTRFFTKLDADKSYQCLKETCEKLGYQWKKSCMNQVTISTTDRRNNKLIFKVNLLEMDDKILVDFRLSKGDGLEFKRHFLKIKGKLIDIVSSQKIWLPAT
Protocol: The assay mixture containing the inhibitor and Chk1 enzyme was mixed together in a microtiter plate in a final volume of 50 μl and incubated for 40 minutes at 30° C.
The reaction was stopped by adding 50 μl of 50 mM phosphoric acid. 90 μl of the mixture was transferred to a pre-wetted 96-well Multiscreen MAPHNOB filtration plate (Millipore) and filtered on a vacuum manifold. […] The filtration plate was dried for 10 min at 65° C., scintillant added and phosphorylated peptide quantified in a scintillation counter (Trilux, PerkinElmer)

[1] = target: CDK-2 enzyme, complexed with cyclin A (Homo sapiens, UniProt P24941); experiment: CDK2 enzyme inhibition assay (33P phosphorylation of peptide […], filter plate); conditions: CDK-2/cyclin A, 0.1 mM ATP, 40 min at 30° C.
Protocol: (§1) The assay mixture containing the inhibitor and CDK-2 enzyme, complexed with cyclin A (0.4 U/ml) was mixed together in a microtiter plate in a final volume of 50 μl and incubated for 40 min at 30° C. The assay mixture contained 0.1 mM unlabeled ATP, 0.01 μCi/μl ^33P-γ-ATP, 0.03 mM peptide, 0.1 mg/ml BSA, 7.5 mM magnesium acetate, 50 mM HEPES-NaOH, pH 7.5. The reaction was stopped by adding 50 μl of 50 mM phosphoric acid. 90 μl of the mixture were transferred to a pre-wetted 96-well Multiscreen MAPHNOB filtration plate (Millipore) and filtered on a vacuum manifold. […] The filtration plate was dried for 10 min at 65° C., scintillant added and phosphorylated peptide quantified in a scintillation counter (Trilux, PerkinElmer)
HEPES is N-[2-Hydroxyethyl]piperazine-N′-[2-ethanesulfonic acid] BSA is bovine serum albumin.

PDK1 enzyme = target: T2, PDK1 enzyme (Homo sapiens, UniProt O15530); experiment: PDK1 kinase inhibition assay (33P phosphorylation of synthetic peptide, filter plate); conditions: 0.01 mM ATP, 60 min at 30° C.
T2 sequence (O15530 1-556): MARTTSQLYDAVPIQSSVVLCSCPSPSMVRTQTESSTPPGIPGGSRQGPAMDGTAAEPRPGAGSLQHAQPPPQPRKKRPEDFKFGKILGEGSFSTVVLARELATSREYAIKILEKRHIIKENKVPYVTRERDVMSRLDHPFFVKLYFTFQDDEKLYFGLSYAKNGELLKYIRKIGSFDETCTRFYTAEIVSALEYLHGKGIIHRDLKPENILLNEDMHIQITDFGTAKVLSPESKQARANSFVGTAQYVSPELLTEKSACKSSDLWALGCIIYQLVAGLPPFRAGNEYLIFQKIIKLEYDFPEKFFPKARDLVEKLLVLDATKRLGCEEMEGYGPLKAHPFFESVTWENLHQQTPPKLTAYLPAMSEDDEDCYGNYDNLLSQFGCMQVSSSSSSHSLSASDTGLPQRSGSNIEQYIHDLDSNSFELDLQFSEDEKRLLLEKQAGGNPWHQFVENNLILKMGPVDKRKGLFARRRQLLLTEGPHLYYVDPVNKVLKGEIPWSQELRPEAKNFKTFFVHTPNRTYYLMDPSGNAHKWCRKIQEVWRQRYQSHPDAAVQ
Protocol: as §1, with “and PDK1 enzyme” for “and CDK-2 enzyme, complexed with cyclin A (0.4 U/ml)”, “for 60” for “for 40”, “contained 0.01” for “contained 0.1”, “^33P-γ-ATP, 0.075” for “^33P-γ-ATP, 0.03”, “acetate, 0.05M Tris.HCl,” for “acetate, 50 mM HEPES-NaOH,”, “pH 7.5, 0.5% 2-mercaptoethanol.” for “pH 7.5.”

Row | Compound | IC50 [1] [nM] | IC50 (PDK1 enzyme; read-out: PDK1 IC50) [µM] | other results
1 | CC(C)c1cnn2c(Nc3ccc(S(=O)(=O)N(C)C)cc3)cc(NCC3CCNCC3)nc12 [Example 80] | 682 | 2.56 | IC50 (GST-Chk1 enzyme; read-out: Chk1 IC50): > 200 µM
2 | CN(C)S(=O)(=O)c1ccc(Nc2cc(N[C@H]3CC[C@H](N)CC3)nc3c(C#N)cnn23)cc1 [Example 199] | 7 | 1.35 | IC50 (GST-Chk1 enzyme; read-out: Chk1 IC50): 0.33 µM
3 | CC(C)c1cnn2c(Nc3ccc(S(=O)(=O)N(C)C)cc3)cc(N[C@H]3CCCC[C@H]3N)nc12 [Example 132] | 3630 | 10.4 | –
4 | CC(C)c1cnn2c(Nc3ccc(S(=O)(=O)N(C)C)cc3)cc(C(=O)N3CCC(CN)CC3)nc12 [Example 131] | 9370 | – | –
5 | CS(=O)(=O)c1ccc(Nc2cc(Cl)nc3ccnn23)cc1 [Example 15] | – | – | IC50 (GST-Chk1 enzyme; Chk1 IC50(μM)): > 200 µM; IC50 (PDK1 enzyme; PDK1 IC50(μM)): > 200 µM
6 | CCc1cnn2c(Nc3ccc(C(=O)NCCN(CC)CC)cc3)cc(Cl)nc12 [Example 152] | 790 | – | IC50 (GST-Chk1 enzyme; read-out: Chk1 IC50): 32 µM
7 | N[C@H]1CC[C@@H](Nc2cc(Nc3ccc(S(=O)(=O)Nc4nccs4)cc3)n3ncc(Br)c3n2)CC1 [Example 177] | – | 0.66 | –
8 | CC(C)c1cnn2c(Nc3ccc(S(=O)(=O)N(C)C)cc3)cc(C(=O)N3CCC(N4CCCC4)CC3)nc12 [Example 130] | 12200 | – | –
9 | CCc1cnn2c(Nc3ccc(S(=O)(=O)N(C)C)cc3)cc(NC3CC(C)(C)NC(C)(C)C3)nc12 [Example 175] | 22200 | 12.9 | –
10 | CC(C)c1cnn2c(Nc3ccc(S(=O)(=O)N(C)C)cc3)cc(N[C@H]3CC[C@@H](N)CC3)nc12 [Example 116] | – | 0.536 | IC50 (GST-Chk1 enzyme; read-out: Chk1 IC50): 2.19 µM
11 | CC1(C)CC(Nc2cc(Nc3ccc(S(=O)(=O)N4CCCC4)cc3)n3ncc(Br)c3n2)CC(C)(C)N1 [Example 179] | 24000 | 4.54 | –
12 | CC(C)c1cnn2c(Nc3ccc(S(=O)(=O)N(C)C)cc3)cc(C(=O)N3CCC(N)CC3)nc12 [Example 123] | 1340 | – | IC50 (GST-Chk1 enzyme; read-out: Chk1 IC50): > 200 µM
13 | CNCCNC(=O)c1cc(Nc2ccc(S(=O)(=O)N(C)C)cc2)n2ncc(C(C)C)c2n1 [Example 155] | 142 | – | IC50 (GST-Chk1 enzyme; read-out: Chk1 IC50): 53 µM
14 | Brc1cccc(-c2cc(NCc3ccncc3)n3nccc3n2)c1 [Example 3] | – | 34.6 | IC50 (GST-Chk1 enzyme; read-out: Chk1 IC50): 29.6 µM
15 | CS(=O)(=O)c1ccc(Nc2ccnc3ccnn23)cc1 [Example 19] | 10400 | > 200 | –
16 | CN(C)S(=O)(=O)c1ccc(Nc2cc(N[C@H]3CC[C@@H](N)CC3)nc3c(S(C)(=O)=O)cnn23)cc1 [Example 200] | 11200 | – | –
17 | O=S(=O)(c1ccc(Nc2cc(N[C@H]3CC[C@H](O)CC3)nc3c(Br)cnn23)cc1)N1CCCC1 [Example 176] | 183 | 3.25 | –
18 | CC(C)c1cnn2c(NC3CCN(S(=O)(=O)C(C)C)CC3)cc(Cl)nc12 [Example 159] | 1170 | – | –
19 | N[C@H]1CC[C@H](Nc2cc(Nc3ccc(Oc4ccc(F)cc4)cc3)n3ncc(Cl)c3n2)CC1 [Example 190] | 46 | – | –
20 | CC(C)c1cnn2c(Nc3ccc(S(N)(=O)=O)cc3)cc(N[C@H]3CC[C@H](N)CC3)nc12 [Example 134] | 26 | 4.43 | –
21 | Clc1cc(NCc2ccncc2)n2ncc(Br)c2n1 [Example 161] | 230 | – | –
22 | CC(C)c1cnn2c(Nc3ccc(S(=O)(=O)N(C)C)cc3)cc(CN3CCC(O)CC3)nc12 [Example 170] | 1800 | > 200 | –
23 | CNC(=O)C1CCN(C(=O)c2cc(Nc3ccc(S(=O)(=O)N(C)C)cc3)n3ncc(C(C)C)c3n2)CC1 [Example 133] | 5170 | – | –
24 | CC(C)c1cnn2c(Nc3ccc(S(=O)(=O)N(C)C)cc3)cc(N3CCC(N)C3)nc12 (stereo not drawn) [Example 129] | 1970 | – | –
25 | CC(C)c1cnn2c(NC3CCN(C(=O)OC(C)(C)C)CC3)cc(Cl)nc12 [Example 153] | 3440 | – | –
26 | CN(C)S(=O)(=O)c1ccc(Nc2cc(O[C@H]3CC[C@H](N)CC3)nc3c(Br)cnn23)cc1 [Example 158] | 5 | – | –
27 | CC(C)c1cnn2c(Nc3ccc(S(=O)(=O)N(C)C)cc3)cc(N[C@H]3CC[C@H](N)CC3)nc12 [Example 30, 3-isopropyl-5-(trans-4-aminocyclohexylamino)-7-(4-(N,N-dimethylsulphonamido)phenylamino)pyrazolo[1,5-a]pyrimidine] | – | 19.9 | IC50 (GST-Chk1 enzyme; read-out: Chk1 IC50): 5.51 µM
28 | CC(C)c1cnn2c(Nc3ccc(S(=O)(=O)N(C)C)cc3)cc(CO)nc12 [Example 146] | 546 | – | –
29 | CN(C)S(=O)(=O)c1ccc(Nc2cc(N[C@H]3CC[C@H](N)CC3)nc3ccnn23)cc1 [Example 169] | 98 | 3.36 | –
30 | N[C@H]1CC[C@H](Nc2cc(Nc3ccc(Oc4cccnc4)cc3)n3ncc(Cl)c3n2)CC1 [Example 189] | 28 | – | –

Continued, in another order:

Row | IC50 [1] [nM] | IC50 (PDK1 enzyme; read-out: PDK1 IC50) [µM] | Compound | other results
31 | 876 | > 200 | COc1cc(Nc2ccc(S(=O)(=O)N(C)C)cc2)n2ncc(C(C)C)c2n1 [Example 66] | IC50 (GST-Chk1 enzyme; read-out: Chk1 IC50): > 200 µM
32 | 572 | > 200 | CN(C)S(=O)(=O)c1cccc(Nc2cc(Cl)nc3c(Br)cnn23)c1 [Example 93] | IC50 (GST-Chk1 enzyme; read-out: Chk1 IC50): > 200 µM
33 | 110 | 38 | CCc1cnn2c(Nc3ccc(S(=O)(=O)Nc4nccs4)cc3)cc(Cl)nc12 [Example 151] | –
34 | 240 | – | CC(C)c1cnn2c(Nc3ccc(S(=O)(=O)N(C)C)cc3)cc(Cl)nc12 [Example 27] | –
35 | 248 | 3 | O=S(=O)(c1ccccc1)c1ccc(Nc2cc(N[C@H]3CC[C@H](O)CC3)nc3c(Br)cnn23)cc1 [Example 182] | –
36 | 230 | > 50 | CS(=O)(=O)c1ccc(Nc2cc(Cl)nc3c(Br)cnn23)cc1 [Example 144] | –
37 | 176 | > 50 | CN1CCN(S(=O)(=O)c2ccc(Nc3cc(Cl)nc4c(Br)cnn34)cc2)CC1 [Example 139] | –
38 | – | 1.06 | N[C@H]1CC[C@H](Nc2cc(Nc3ccc(S(=O)(=O)c4ccccc4)cc3)n3ncc(Br)c3n2)CC1 [Example 137] | IC50 (GST-Chk1 enzyme; read-out: Chk1 IC50): 0.717 µM
39 | 52 | – | CC(C)c1cnn2c(Nc3ccc(S(=O)(=O)N(C)CCN(C)C)cc3)cc(Cl)nc12 [Example 68] | –
40 | 108 | – | Clc1cccc(Nc2cc(Cl)nc3c(Br)cnn23)c1 [Example 160] | –
41 | 66 | > 200 | CCc1cnn2c(Nc3ccc(S(=O)(=O)N4CCCC4)cc3)cc(Cl)nc12 [Example 142] | –
42 | 240 | – | CN(C)S(=O)(=O)c1ccc(Nc2cc(O[C@@H]3CCNC3)nc3c(Cl)cnn23)cc1 [Example 195] | IC50 (GST-Chk1 enzyme; read-out: Chk1 IC50): 7.79 µM
43 | 204 | 16 | O=S(=O)(c1ccccc1)c1ccc(Nc2cc(Cl)nc3c(Br)cnn23)cc1 [Example 136] | –
44 | 89 | – | O=S(=O)(c1ccc(Nc2cc(Cl)nc3c(Cl)cnn23)cc1)c1cccs1 [Example 188] | –
